Values after ≈ are worked out from the molar mass of the structure shown.

The test system of test [1] is USA300 #1799 (community-associated MRSA). Description: MIC against clinically isolated strain 8. In kind it is cell-based, S. aureus. The settings on record: Staphylococcus aureus. How it is done:
Procedure of Antimicrobial susceptibility test: The MIC value of compounds was measured in the antimicrobial susceptibility test using the broth microdilution procedure in accordance with the CLSI guidelines.^21 Cation-adjusted Mueller Hinton broth (CA-MHB) was used for all the S. aureus strains in the assay. Cells in exponential phase of growth were diluted to approximately 5×10^5 cfu/mL. Stock solutions of each compound were freshly dissolved in dimethyl sulfoxide (DMSO). Then, serial dilutions of each compound in CA-MHB medium were added into 96-well microplate. The final percentage of DMSO in the assay was 1%. Control experiments were performed with 1% DMSO instead of the compound solution. After being incubated at 37° C. for 18 h, OD600 value of cells was measured on a microplate reader and the percentage of bacterial cell inhibition with respect to controls was calculated. The MIC value was defined as the lowest compound concentration at which the growth of bacteria was inhibited by ≥90%. Three independent assays were performed for each compound.
Results: Three compounds, namely 14av_amine16, 14dv_amine16 and 14dv_amine06, were selected to be tested against nine in-house clinically isolated bacterial strains including S. aureus ATCC29247, which is an ampicillin resistant strain, S. aureus ATCC BAA-41, ATCC BAA-1717, ATCC BAA-1720, ATCC 43300 which are methicillin resistant strains and four USA300 strains, (#417, #757, #1799 and #2690), which are the predominant strain type of community-associated MRSA strains in the United States.

Another test concerns MRSA ATCC 43300. Description: Antimicrobial efficacy in G. mellonella model of infection. It counts as in vivo, Galleria mellonella. How it is done: Procedure: Compound 14av_amine16 was tested in a Galleria mellonella model, which are an easy and inexpensive in vivo model with no ethical constraints for investigating antibacterial activity of a compound.^22 The G. mellonella model of S. aureus infection was used as previously described.^24 Briefly, 1 mL aliquots of overnight cultures of S. aureus 43300 were pelleted by centrifugation and washed with sterile PBS before being resuspended in 100 μL of PBS. G. mellonella larvae (N=10) that weighed 200-300 mg were then inoculated with 10 μL of S. aureus (2.5×10^6 CFU) into the last left proleg. Larvae were then treated with compounds at 1 h before bacterial inoculation. Treatments were performed in the same manner as infection, except that compounds were injected into the next left proleg moving toward the head of the larvae. […] Data was analyzed for statistical significance using a log rank and χ square test with 1 degree of freedom. Various concentrations of compound 14av_amine16 dissolved in 50% PEG in saline (0 mg/Kg, 50 mg/Kg and 100 mg/Kg) were injected into the hemocoel of last-instar G. mellonella larvae and survival was scored over time.
The efficacy of compound 14av_amine16 against G. mellonella larvae infected with MRSA ATCC 43300 was investigated. Inoculation of lethal dose of 2.5×10^6 CFU/larva of MRSA ATCC 43300 led to a significant death rate. […]

One may read the MIC as the least concentration at which growth counts as inhibited. A high value points to a less susceptible organism. The molecule `CCC(CC)c1cc(CCN2CCCN(Cc3ccc(C(F)(F)F)cc3)CC2)nc(-c2ccncc2)n1` [Compound 14av_amine16, 1-(2-(6-(pentan-3-yl)-2-(pyridin-4-yl)pyrimidin-4-yl)ethyl)-4-(4-(trifluoromethyl)benzyl)-1,4-diazepane] displayed a minimum inhibitory concentration (MIC) in test [1] of 12 µM (≈ 6.14 µg/mL). Besides, the “survival time of infected larvae” value with MRSA ATCC 43300 (50 mg/Kg, lethal dose 2.5×10^6 CFU/larva MRSA ATCC 43300) was 36 h. Also, the “survival rate of infected larvae over the infection period” value in the test on MRSA ATCC 43300 (100 mg/Kg, lethal dose MRSA ATCC 43300, 48 h) was found to be 20%.

Source of the values: patent publication US9951039B2, “Pyrimidines for treatment of bacterial infections” (The Hong Kong Polytechnic University, priority 2016, dated 2018).
